Results taken from ChEMBL document CHEMBL6096728, “Simultaneous Induction of Immunogenic Pyroptosis and PD-L1 Downregulation by One Single Photosensitizer for Synergistic Cancer Photoimmunotherapy” (J Med Chem, 2025).
Activity calls are given as the source filed them. The rule behind the calls is not given here.

What was measured:
MDA-MB-231 [1] = test: Induction of pyroptosis in human MDA-MB-231 cells assessed as upregulation of caspase-3 expression level at 0.1 to 0.5 uM preincubated with compound for 12 hrs followed by light irradiation of 20 mW.cm/2 at 400 to 700nm for 10 mins by Western blot analysis; format: functional, cell-based; settings: dose 0.1-0.5 µM
MDA-MB-231 [2] = test: Induction of pyroptosis in human MDA-MB-231 cells assessed as upregulation of GSDME-N expression level at 0.1 to 0.5 uM preincubated with compound for 12 hrs followed by light irradiation of 20 mW.cm/2 at 400 to 700nm for 10 mins by Western blot analysis; format: functional, cell-based; settings: dose 0.1-0.5 µM
[3] = Aqueous solubility of the compound by UV-vis absorption analysis; format: physicochemical; settings: water
[4] = Induction of ROS generation under LED light irradiation assessed as increase in superoxide anion radical level by measuring increase in DHR123 fluorescence at 5 uM measured for 7 mins by fluorescence based analysis; format: functional
[5] = Drug uptake in mouse 4T1 cells assessed as increase in fluorescence intensity at 2.5 uM measured after 10 mins by flow cytometry analysis; format: ADME, cell-based; settings: 4t1, 10 min
[6] = Drug uptake in mouse 4T1 cells assessed as increase in fluorescence intensity at 2.5 uM measured after 180 mins by flow cytometry analysis; format: ADME, cell-based; settings: 4t1, 3 h
MDA-MB-231 [7] = test: Cytotoxicity against human MDA-MB-231 cells at 0.01 to 10 uM incubated for 2 hrs under dark condition by CCK-8 method; format: functional, cell-based; settings: dose 0.01-10 µM
4T1 [8] = test: Cytotoxicity against mouse 4T1 cells at 0.01 to 10 uM incubated for 2 hrs under dark condition by CCK-8 method; format: functional, cell-based; settings: dose 0.01-10 µM
[9] = Phototoxicity against mouse 4T1 cells preincubated for 2 hrs followed by light irradiation of 20 mW.cm/2 at 400 at 700nm for 24 hrs by CCK-8 method; format: functional, cell-based; settings: 4T1, light or radiation study
[10] = Phototoxicity against mouse 4T1 cells preincubated for 24 hrs followed by light irradiation of 20 mW.cm/2 at 400 to 700nm for 10 mins under hypoxia condition by CCK-8 method; format: functional, cell-based; settings: 4T1, light or radiation study
4T1 [11] = test: Induction of cell death in mouse 4T1 cells assessed as increase in red fluorescence at 0.5 uM incubated for 24 hrs followed by light irradiation of 20 mW.cm/2 at 400 to 700nm for 10 mins by Calcein-AM/PI staining based analysis; format: functional
4T1 [12] = test: Inhibition of mouse 4T1 cells at 0.1 uM under light irradiation of 20 mW.cm/2 at 400 to 700nm measured after 14 days by crystal violet staining based assay; format: functional, cell-based; settings: time 14.0 day
MDA-MB-231 [13] = test: Induction of pyroptosis in human MDA-MB-231 cells assessed as formation of bubble-like protrusion on plasma membrane at 0.25 uM preincubated with compound for 12 hrs followed by light irradiation of 20 mW.cm/2 at 400 to 700nm for 10 mins by microscopy analysis; format: functional, cell-based
MDA-MB-231 [14] = test: Inhibition of STAT3 phosphorylation level in human MDA-MB-231 cells at 0.5 uM incubated for 24 hrs under light irradiation of 20 mW.cm/2 at 400 to 700nm for 10 mins by Western blot analysis; format: functional, cell-based
MDA-MB-231 [15] = test: Photocytotoxicity in human MDA-MB-231 cells assessed as reduction in 3D multicellular spheroids diameter at 0.5 to 1 uM incubated for 24 hrs under light irradiation of 50 mW.cm/2 at 400 to 700nm measured after 10 mins in hypoxia condition; format: functional, cell-based; settings: dose 0.5-1 µM
MDA-MB-231 [16] = test: Photocytotoxicity in human MDA-MB-231 cells assessed as cell viablity incubated for 24 hrs under light irradiation of 50 mW.cm/2 at 400 to 700nm measured after 10 mins in normoxia condition by CCK-8 method; format: functional, cell-based; settings: MDA-MB-231, light or radiation study
[17] = Toxicity in BALB/c mouse assessed as change in body weight at 25 mg/kg, iv measured after 14 days; format: organism-based; settings: in vivo, 336 h, time 14 day
[18] = Toxicity in BALB/c mouse assessed as effect on heart at 25 mg/kg, iv measured after 14 days by H and E staining based analysis; format: organism-based; settings: in vivo, 336 h, time 14 day
[19] = Toxicity in BALB/c mouse assessed as effect on lung at 25 mg/kg, iv measured after 14 days by H and E staining based analysis; format: organism-based; settings: in vivo, 336 h, time 14 day
[20] = Toxicity in BALB/c mouse assessed as effect on kidney at 25 mg/kg, iv measured after 14 days by H and E staining based analysis; format: organism-based; settings: in vivo, 336 h, time 14 day
[21] = Toxicity in BALB/c mouse assessed as effect on lung at 25 mg/kg, iv measured after 14 days under light irradiation of 300 mW.cm/2 at 400 to 700nm measured after 5 mins; format: organism-based; settings: in vivo, 336 h, 0.7 µM, time 14 day
[22] = Toxicity in BALB/c mouse assessed as effect on platelets at 25 mg/kg, iv measured after 14 days; format: organism-based; settings: in vivo, 336 h, time 14 day
[23] = Toxicity in BALB/c mouse assessed as effect on WBC at 25 mg/kg, iv measured after 14 days under light irradiation of 300 mW.cm/2 at 400 to 700nm measured after 5 mins; format: organism-based; settings: in vivo, 336 h, time 14 day
[24] = Toxicity in BALB/c mouse assessed as effect on platelets at 25 mg/kg, iv measured after 14 days under light irradiation of 300 mW.cm/2 at 400 to 700nm measured after 5 mins; format: organism-based; settings: in vivo, 336 h, 0.7 µM, time 14 day
4T1 [25] = test: Antitumor immunity against mouse 4T1 cells implanted in BALB/c mouse model assessed as upregulation of proportion of neutrophils in lymph node at 25 mg/kg, iv measured after 14 days under light irradiation of 300 mW.cm/2 at 400 to 700nm measured after 5 mins by flow cytometry analysis; format: functional, organism-based; settings: time 14.0 day
4T1 [26] = test: Antitumor immunity against mouse 4T1 cells implanted in BALB/c mouse model assessed as increase in IL1beta secretion in tumors at 25 mg/kg, iv measured after 14 days under light irradiation of 300 mW.cm/2 at 400 to 700nm measured after 5 mins by ELISA method; format: functional, organism-based; settings: time 14.0 day
4T1 [27] = test: Antitumor immunity against mouse 4T1 cells implanted in BALB/c mouse model assessed as fold increase in CD4+ T cells in spleen at 25 mg/kg, iv measured after 14 days under light irradiation of 300 mW.cm/2 at 400 to 700nm measured after 5 mins […]; format: functional; settings: time 14 day
4T1 [28] = test: Antitumor immunity against mouse 4T1 cells implanted in BALB/c mouse model assessed as increase of CD8+ T cells in lymph node at 25 mg/kg, iv measured after 14 days under light irradiation of 300 mW.cm/2 at 400 to 700nm measured after 5 mins […]; format: functional, organism-based; settings: time 14.0 day
4T1 [29] = test: Antitumor immunity against mouse 4T1 cells implanted in BALB/c mouse model assessed as increase in proportion of tumor infiltrating CD8+ T cells at 25 mg/kg, iv measured after 14 days under light irradiation of 300 mW.cm/2 at 400 to 700nm measured after 5 mins by immunofluorescence analysis; format: functional, organism-based; settings: time 14.0 day

Question: For `O=c1cc2sc3cc(N4CCNCC4)ccc3nc-2c2ccccc12`, which Activity (MDA-MB-231 [1]) is on record?
Answer: The Activity was “Active”.

Question: What about the Activity (MDA-MB-231 [2]) of the same compound?
Answer: Its Activity is “Active”.

Question: And the solubility [3]?
Answer: Its solubility is greater than 10 mM.

Question: What about the Activity [4] of the same compound?
Answer: The Activity was “Active”.

Question: And the Drug uptake [5]?
Answer: The Drug uptake was “Active”.

Question: And the Drug uptake [6]?
Answer: Its Drug uptake is “Active”.

Question: What about the Activity (MDA-MB-231 [7]) of the same compound?
Answer: Its Activity is “Active; Compound Showed Low Toxicity”.

Question: And the Activity (4T1 [8])?
Answer: The Activity was “Active; Compound Showed Low Toxicity”.

Question: What about the IC50 [9] of the same compound?
Answer: Its IC50 is 403 nM.

Question: What about the IC50 [10] of the same compound?
Answer: Its IC50 is 693 nM.

Question: And the Activity (4T1 [11])?
Answer: The Activity was “Active”.

Question: And the inhibition (4T1 [12])?
Answer: The inhibition was “Active”.

Question: What about the Activity (MDA-MB-231 [13]) of the same compound?
Answer: Its Activity is “Active”.

Question: And the inhibition (MDA-MB-231 [14])?
Answer: Its inhibition is “Active”.

Question: And the Activity (MDA-MB-231 [15])?
Answer: The Activity was “Active”.

Question: What about the IC50 (MDA-MB-231 [16]) of the same compound?
Answer: The IC50 was 356 nM.

Question: And the Activity [17]?
Answer: The Activity was “Non-toxic”.

Question: And the Activity [18]?
Answer: Its Activity is “Non-toxic”.

Question: What about the Activity [19] of the same compound?
Answer: The Activity was “Non-toxic”.

Question: What about the Activity [20] of the same compound?
Answer: Its Activity is “Non-toxic”.

Question: And the Activity [21]?
Answer: The Activity was “Non-toxic”.

Question: What about the Activity [22] of the same compound?
Answer: Its Activity is “Non-toxic”.

Question: What about the Activity [23] of the same compound?
Answer: Its Activity is “Non-toxic”.

Question: What about the Activity [24] of the same compound?
Answer: Its Activity is “Non-toxic”.

Question: What about the Activity (4T1 [25]) of the same compound?
Answer: The Activity was “Active”.

Question: What about the Activity (4T1 [26]) of the same compound?
Answer: The Activity was “Active”.

Question: What about the “fold change (FC)” value (4T1 [27]) of the same compound?
Answer: Its value is 6.8.

Question: And the Activity (4T1 [28])?
Answer: Its Activity is “Active”.

Question: And the Activity (4T1 [29])?
Answer: Its Activity is “Active”.
